Results: patent US20150329498A1, “IRAK INHIBITORS AND USES THEREOF” (Nimbus Iris, Inc., priority 2014, published 2015)

Assays:
[1] = system: TNFα production in THP-1 cells; experiment: LPS induced TNFα production assay in THP-1 cells; assay type: cell-based; conditions: Homo sapiens, 300 ng/mL LPS, measured at 5 hours
Experimental: (§1) Provided compounds were also assayed in an LPS (Lipopolysaccharide) or R848 (TLR-7 agonist) induced cytokine (TNFα and IL8) production assay in THP-1 cells, human white blood cells (hWBC), and human whole blood. The exemplary protocol for this assay in THP-1 cells was as follows below.
(§2) THP-1 cells from ATCC (TIB-202) were cultured in RPMI Medium 1640 (Invitrogen, Cat No. A10491-01), 10% fetal bovine serum (Invitrogen, Cat No. 10099141, Lot No. 8172882) containing 100 U/mL Penicillin, 100 μg/mL streptomycin (Invitrogen, Cat No. 15140-122), and 50 uM 2-Mercaptoethanol (Invitrogen, Cat No. 21985023). LPS-EK ultra pure (Invivogen, Cat No. tlrl-peklps) was used to induce IL8 and TNFα production, that was detected in the cell culture supernatant by IL8 HTRF kit (Cisbio, Cat No. 62IL8PEB) and TNFα HTRF kit (Cisbio, Cat No. 62TNFPEB), as per manufacturer instructions. Cells were cultured in 96 well assay plates at 100,000 cells per well, and compounds diluted in final 0.3% DMSO were pre-incubated with cells for 1 hour prior to stimulation with 300 ng/mL LPS. Cytokine production in cell supernatant was measured at 5 hours for TNFα production, and at 16 hours for IL8 production and assessment of cell viability.
(§3) The compound numbers correspond to the compound numbers in Table 1. Compounds having an activity designated as “A” provided an IC50≦0.5 μM; compounds having an activity designated as “B” provided an IC50 of 0.5-5.0 μM; compounds having an activity designated as “C” provided an IC50>5.0 μM. “NA” stands for “not assayed.”

[2] = system: IL8 production in THP-1 cells; experiment: LPS induced IL8 production assay in THP-1 cells; assay type: cell-based; conditions: Homo sapiens, 300 ng/mL LPS, measured at 16 hours
Experimental: as §1, §2, §3

IRAK4 = target: T1, IRAK4 (Homo sapiens, UniProt Q9NWZ3); experiment: IRAK-4 activity inhibition assay (Caliper); assay type: biochemical; conditions: 3.5 nM IRAK4, 1.5 μM Peptide 8, 37 μM ATP
T1 construct: purchased CARNA Bioscience 09-145
T1 sequence (Q9NWZ3 1-460): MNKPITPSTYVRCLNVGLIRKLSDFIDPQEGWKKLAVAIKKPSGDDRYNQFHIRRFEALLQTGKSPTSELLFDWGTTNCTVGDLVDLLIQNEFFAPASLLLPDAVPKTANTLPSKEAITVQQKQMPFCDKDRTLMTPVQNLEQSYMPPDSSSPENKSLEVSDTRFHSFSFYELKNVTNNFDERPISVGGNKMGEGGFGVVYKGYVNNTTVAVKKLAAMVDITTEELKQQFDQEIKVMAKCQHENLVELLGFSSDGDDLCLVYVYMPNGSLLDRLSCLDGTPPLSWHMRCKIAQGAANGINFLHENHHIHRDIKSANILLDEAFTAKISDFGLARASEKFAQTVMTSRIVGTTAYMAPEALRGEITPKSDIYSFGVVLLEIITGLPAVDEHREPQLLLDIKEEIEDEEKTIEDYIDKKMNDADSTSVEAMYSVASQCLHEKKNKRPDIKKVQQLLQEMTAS
Experimental: A 1x kinase base buffer was prepared from 50 mM HEPES, pH 7.5 and 0.0015% Brij-35. A stop buffer was prepared from 100 mM HEPES, pH 7.5, 0.015% Brij-35, 0.2% Coating Reagent #3, and 50 mM EDTA.
Test compound was diluted to 50× of the final desired highest inhibitor concentration in reaction by 100% DMSO. 100 ul of this compound dilution was transferred to a well in a 96-well plate. For example, if desired highest inhibitor concentration in IC50 determination is 100 uM, then prepare 5000 uM of compound DMSO solution in this step.
Test compound was serially diluted by transferring 30 μl to 60 μl of 100% DMSO in the next well and so forth for a total of 10 concentrations. 100 μl of 100% DMSO was added to two empty wells for no compound control and no enzyme control in the same 96-well plate.
A new 96-well plate was marked as intermediate plate. 5 μl of compound serial dilution was transferred from source plate to the corresponding wells of the intermediate plate. 45 μl of 1x kinase base buffer (KB buffer) was added to each well of the intermediate plate. The intermediate plate was placed for 10 min on a shaker.
5 μl of each well was transferred from the 96-well intermediate plate to a 384-well plate in duplicates. For example, A1 of the 96-well plate is transferred to A1 and A2 of the 384-well plate. A2 of the 96-well plate is transferred to A3 and A4 of the 384-well plate, and so on.
IRAK4 and DTT in 1x kinase base buffer was added. The 2.5x enzyme mix contained 8.8 nM IRAK4 and 5 mM DTT.
Peptide 8, ATP, MgCl2 and MnCl2 were added in the 1x kinase base buffer. The 2.5x peptide mix contained 3.75 μM peptide 8, 92.5 μM ATP, 12.5 mM MgCl2 and 2.5 mM MnCl2.
Assay plate already contained 5 μl of compound in 10% DMSO. Added 10 μl of 2.5x enzyme solution to each well of the 384-well assay plate, except no enzyme control wells. The final concentration of IRAK4 in reaction was 3.5 nM. Added 10 μl of 1x kinase base buffer to no enzyme control wells in the assay plate. Incubated at room temperature for 10 min.
Added 10 μl of 2.5x peptide solution to each well of the 384-well assay plate. The final concentration of Peptide 8 and ATP was 1.5 μM and 37 μM, respectively. Incubated at for 40 minutes. Added 25 μl of stop buffer to stop reaction. Collected data on Caliper.
Copied conversion % data from Caliper program. Converted conversion % values to percent inhibition values. Percent inhibition=(max−conversion %)/(max−min)*100, where “max” means the conversion % of DMSO control and “min” means the conversion % of no enzyme control.
The compound numbers correspond to the compound numbers in Table 1. Compounds having an activity designated as “A” provided an IC50≦5 μM; compounds having an activity designated as “B” provided an IC50 of 5-20 μM; compounds having an activity designated as “C” provided an IC50 of 20-50 μM; and compounds having an activity designated as “D” provided an IC50≧50 μM. “NA” stands for “not assayed.”

IC50 [1]	IC50 [2]	IC50 (IRAK4)	Compound
≤ 500 nM	≤ 500 nM	≤ 5000 nM	c1nc(N[C@H]2CC[C@H](N3CCOCC3)CC2)c2cc(-c3cn[nH]c3)ccc2n1 [Compound I-59, N-((1r,4r)-4-morpholinocyclohexyl)-6-(1H-pyrazol-4-yl)quinazolin-4-amine]
≤ 500 nM	≤ 500 nM	≤ 5000 nM	C=Cc1ccc2ncnc(N[C@H]3CC[C@H](N4CCC5(CC4)CC5)CC3)c2c1 [Compound I-38, N-((1r,4r)-4-(6-azaspiro[2.5]octan-6-yl)cyclohexyl)-6-vinyl-quinazolin-4-amine]
≤ 500 nM	≤ 500 nM	≤ 5000 nM	N#CCc1ccc2ncnc(N[C@H]3CC[C@H](N4CCC5(CC4)CC5)CC3)c2c1 [Compound I-52, 2-(4-(((1r,4r)-4-(6-azaspiro[2.5]octan-6-yl)cyclohexyl)amino)quin-azolin-6-yl)acetonitrile]
500 to 5000 nM	> 5000 nM	≤ 5000 nM	NC(=O)c1ccc2ncnc(N[C@H]3CC[C@H](N4CCOCC4)CC3)c2c1 [Compound I-5, 4-(((1r,4r)-4-morpholinocyclohexyl)amino)quinazoline-6-carboxamide]
500 to 5000 nM	≤ 500 nM	≤ 5000 nM	N#CCc1ccc2ncnc(N[C@H]3CC[C@H](N4CCOCC4)CC3)c2c1 [Compound I-34, 2-(4-(((1r,4r)-4-morpholinocyclohexyl)amino)-quinazolin-6-yl)acetonitrile]
≤ 500 nM	≤ 500 nM	≤ 5000 nM	N#Cc1ccc2ncnc(N[C@H]3CC[C@H](N4CCC5(CC4)COC5)CC3)c2c1 [Compound I-14, 4-(((1r,4r)-4-(2-oxa-7-azaspiro[3.5]nonan-7-yl)cyclohexyl)amino)-quinazoline-6-carbonitrile]
500 to 5000 nM	≤ 500 nM	≤ 5000 nM	N#Cc1ccc2nc(Nc3cnn(CCO)c3)nc(N[C@H]3CC[C@H](N4CCOCC4)CC3)c2c1 [Compound I-22, 2-((1-(2-hydroxyethyl)-1H-pyrazol-4-yl)amino)-4-(((1r,4r)-4-morpholinocyclohexyl)amino)quinazoline-6-carbonitrile]
500 to 5000 nM	≤ 500 nM	≤ 5000 nM	c1nc(N[C@H]2CC[C@H](N3CCOCC3)CC2)c2c3c(ccc2n1)CCC3 [Compound I-29, N-((1r,4r)-4-morpholinocyclohexyl)-8,9-dihydro-7H-cyclo-penta[f]quinazolin-1-amine]
≤ 500 nM	≤ 500 nM	≤ 5000 nM	OCCCc1ccc2ncnc(N[C@H]3CC[C@H](N4CCOCC4)CC3)c2c1 [Compound I-46, 3-(4-(((1r,4r)-4-morpholinocyclohexyl)amino)quinazolin-6-yl)propan-1-ol]
500 to 5000 nM	500 to 5000 nM	≤ 5000 nM	CS(=O)(=O)CCCn1cc(Nc2nc(N[C@H]3CC[C@H](N4CCOCC4)CC3)c3cc(C#N)ccc3n2)cn1 [Compound I-25, 2-((1-(3-(methylsulfonyl)propyl)-1H-pyrazol-4-yl)amino)-4-(((1r,4r)-4-morpholinocyclohexyl)amino)quinazoline-6-carbonitrile]
500 to 5000 nM	> 5000 nM	≤ 5000 nM	NC(=O)/C=C/c1ccc2ncnc(N[C@H]3CC[C@H](N4CCOCC4)CC3)c2c1 [Compound I-54, (E)-3-(4-(((1r,4r)-4-morpholinocyclohexyl)amino)quinazolin-6-yl)acrylamide]
≤ 500 nM		≤ 5000 nM	C=Cc1ccc2ncnc(N[C@H]3CC[C@H](N4CCOCC4)CC3)c2c1 [Compound I-20, N-((1r,4r)-4-morpholinocyclohexyl)-6-vinylquinazolin-4-amine]
≤ 500 nM	≤ 500 nM	≤ 5000 nM	CCc1ccc2ncnc(N[C@H]3CC[C@H](N4CCOCC4)CC3)c2c1 [Compound I-15, 6-ethyl-N-((1r,4r)-4-morpholinocyclohexyl)quinazolin-4-amine]
≤ 500 nM	≤ 500 nM	≤ 5000 nM	OC/C=C/c1ccc2ncnc(N[C@H]3CC[C@H](N4CCOCC4)CC3)c2c1 [Compound I-41, (E)-3-(4-(((1r,4r)-4-morpholinocyclohexyl)amino)quinazolin-6-yl)prop-2-en-1-ol]
500 to 5000 nM	≤ 500 nM	≤ 5000 nM	C#Cc1ccc2ncnc(N[C@H]3CC[C@H](N4CCOCC4)CC3)c2c1 [Compound I-35, 6-ethynyl-N-((1r,4r)-4-morpholinocyclohexyl)quinazolin-4-amine]
≤ 500 nM	≤ 500 nM	≤ 5000 nM	Cn1cc(Nc2nc(N[C@H]3CC[C@H](N4CCOCC4)CC3)c3cc(C#N)ccc3n2)cn1 [Compound I-11, 2-((1-methyl-1H-pyrazol-4-yl)amino)-4-(((1r,4r)-4-morpholino-cyclohexyl)amino)quinazoline-6-carbonitrile]
≤ 500 nM	≤ 500 nM	≤ 5000 nM	Clc1ccc2ncnc(N[C@H]3CC[C@H](N4CCC5(CC4)COC5)CC3)c2c1 [Compound I-27, N-((1r,4r)-4-(2-oxa-7-azaspiro[3.5]nonan-7-yl)cyclohexyl)-6-chloroquinazolin-4-amine]
500 to 5000 nM	≤ 500 nM	≤ 5000 nM	N#Cc1ccc2nccc(N[C@H]3CC[C@H](N4CCOCC4)CC3)c2c1 [Compound I-47, 4-(((1r,4r)-4-morpholinocyclohexyl)amino)quinoline-6-carbo-nitrile]
500 to 5000 nM	≤ 500 nM	≤ 5000 nM	N#Cc1ccc2nc(Nc3cnn(CCOCCO)c3)nc(N[C@H]3CC[C@H](N4CCOCC4)CC3)c2c1 [Compound I-24, 2-((1-(2-(2-hydroxyethoxy)ethyl)-1H-pyrazol-4-yl)amino)-4-(((1r,4r)-4-morpholinocyclohexyl)amino)quinazoline-6-carbonitrile]
